Data reported in PubChem BioAssay (NCI).
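Dose response: 5 concentrations. Exposure: 48 h. Format: 96-well plates. Endpoint: linear interpolation; highest concentration if not reached. TGI marks complete inhibition of growth.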 Where a SMILES comes first, the peptide text is derived from it. [ ]: non-standard residue; d: D form. The star is where a group is joined. Phe(4-NO2) = N[CH](Cc1ccc([N+](=O)[O-])cc1)C(=O)O; Boc = CC(C)(C)OC(=O)*

Tests used:
Experiment in all cases: NCI tumour cell line growth inhibition, 48 h
HCT-116 colon = test system: HCT-116 colon
HL-60(TB) leukemia = test system: HL-60(TB) leukemia
K-562 leukemia = test system: K-562 leukemia
LOX IMVI melanoma = test system: LOX IMVI melanoma
M14 melanoma = test system: M14 melanoma
MDA-MB-435 = test system: MDA-MB-435
MDA-N = test system: MDA-N
MOLT-4 leukemia = test system: MOLT-4 leukemia
NCI-H23 lung = test system: NCI-H23 lung
OVCAR-3 ovarian = test system: OVCAR-3 ovarian
OVCAR-5 ovarian = test system: OVCAR-5 ovarian
PC-3 prostate = test system: PC-3 prostate
RXF 393 renal = test system: RXF 393 renal
SF-295 CNS = test system: SF-295 CNS
SF-539 CNS = test system: SF-539 CNS
SNB-19 CNS = test system: SNB-19 CNS
SR leukemia = test system: SR leukemia
SW-620 colon = test system: SW-620 colon
UACC-257 melanoma = test system: UACC-257 melanoma
HCC-2998 colon = test system: HCC-2998 colon

SMILES | TGI (HCT-116 colon) | TGI (HL-60(TB) leukemia) | TGI (K-562 leukemia) | TGI (LOX IMVI melanoma) | TGI (M14 melanoma) | TGI (MDA-MB-435) | TGI (MDA-N) | TGI (MOLT-4 leukemia) | TGI (NCI-H23 lung) | TGI (OVCAR-3 ovarian) | TGI (OVCAR-5 ovarian) | TGI (PC-3 prostate) | TGI (RXF 393 renal) | TGI (SF-295 CNS) | TGI (SF-539 CNS) | TGI (SNB-19 CNS) | TGI (SR leukemia) | TGI (SW-620 colon) | TGI (UACC-257 melanoma) | TGI (HCC-2998 colon)
Cc1ccc(S(=O)(=O)N/N=C2\CC(C)OC3=C2CCCCCC3)cc1 (stereo not drawn) | 30.4 µM | 54.6 µM | > 100 µM | 33.7 µM | 36.2 µM | 34.6 µM | > 100 µM | 55.9 µM | 41.6 µM | 36 µM | 37.8 µM | 38.9 µM | 32.4 µM | 35.9 µM | 38.9 µM | 44.1 µM | 60.4 µM | 36.4 µM | 36.6 µM | 
COC(=O)CCC(NC(=O)OC(C)(C)C)C(=O)NC(Cc1ccc([N+](=O)[O-])cc1)C(=O)NC(CCC(=O)OC)C(=O)OC (stereo not drawn) (Boc-Glu(OMe)-[Phe(4-NO2)]-Glu(OMe)-OMe; configuration not given here) | > 100 µM |  | > 100 µM | 80.2 µM | > 100 µM | > 100 µM | > 100 µM | 49.9 µM | > 100 µM | > 100 µM | > 100 µM | > 100 µM | > 100 µM | > 100 µM | > 100 µM | > 100 µM | 51.6 µM | > 100 µM | 25.3 µM | > 100 µM
Nc1c(Br)cc(-c2nc3ccccc3s2)cc1Br | > 100 µM | > 100 µM | > 100 µM |  | > 100 µM | > 100 µM | > 100 µM | > 100 µM |  | > 100 µM | > 100 µM | > 100 µM | > 100 µM | > 100 µM | > 100 µM | > 100 µM | > 100 µM | > 100 µM | > 100 µM | > 100 µM
Cn1ccoc1=Nc1ccc(Cl)c(Cl)c1 | > 10 µM |  | > 10 µM | > 10 µM | > 10 µM | > 10 µM | > 10 µM | > 10 µM | > 10 µM | > 10 µM | > 10 µM | > 10 µM |  | > 10 µM | > 10 µM | > 10 µM | > 10 µM | > 10 µM | > 10 µM | > 10 µM
OCCCCCCCCCCCOc1ccc(C2OCC3(CC=CCC3)CO2)cc1 (stereo not drawn) | 29.3 µM | 88.7 µM |  | 25.2 µM | 26 µM | 38 µM | 32 µM | > 100 µM | 31.6 µM | 57.3 µM | 46.3 µM | 22.8 µM |  | 34.7 µM | 45.6 µM | 43.5 µM | 17.1 µM | 39.1 µM | 38.2 µM | 38 µM
C=C1CC(C)(COc2ccc3c(C)cc(=O)oc3c2)OC1=O (stereo not drawn) | 4.72 µM | 3.94 µM | > 31.9 µM | 5.11 µM | 3.35 µM | 8.92 µM | 8.29 µM | 4.2 µM | 14.1 µM | 11 µM | 16.5 µM | 13.5 µM |  | 16.3 µM | 4.59 µM | 28.4 µM | 4.33 µM | 3.09 µM | 4.35 µM | 9.5 µM
COCOc1c(C(OCOC)c2cnc(Sc3ccccc3)n2C)ccc(OC)c1OC (stereo not drawn) | > 100 µM | > 100 µM | > 100 µM | > 100 µM |  | > 100 µM | > 100 µM | > 100 µM | > 100 µM | > 100 µM | > 100 µM | > 100 µM | > 100 µM | > 100 µM | > 100 µM | > 100 µM | > 100 µM | > 100 µM | > 100 µM | > 100 µM
COC(=O)N/N=C(\c1ccccc1)c1ccc(OC)cc1 | > 100 µM | > 100 µM | > 100 µM | > 100 µM | > 100 µM | > 100 µM | > 100 µM | > 100 µM | > 100 µM | > 100 µM | > 100 µM | > 100 µM | > 100 µM |  | > 100 µM | > 100 µM | > 100 µM | > 100 µM | > 100 µM | > 100 µM
COc1ccc2c(c1)CCc1c-2n(CCN2CCOCC2)c2ccc(OC)cc12 | > 100 µM |  | 54 µM |  | > 100 µM | > 100 µM | > 100 µM | 41.1 µM | > 100 µM | > 100 µM | > 100 µM | > 100 µM | > 100 µM | > 100 µM | > 100 µM |  | 34.8 µM | > 100 µM | > 100 µM | 33.2 µM
C#CC(O)/C=C/C(O)CCCC(O)CC#CC(O)C#CC(O)CCCC(O)/C=C/CCCCCC(=O)CCCCCCCCCCCCCC(O)C(O)C#CC(=O)O (stereo not drawn) | > 50 µM | > 50 µM | > 50 µM | 24.5 µM | > 50 µM | > 50 µM | > 50 µM | 26.6 µM | > 50 µM |  | > 50 µM | > 50 µM |  | > 50 µM |  | > 50 µM | 26.1 µM |  | > 50 µM | > 50 µM
COc1ccc2nc3c([N+](=O)[O-])ccc(NCCN(C)C)c3c(NCCN(C)C)c2c1 |  | 3.02 µM | 3.42 µM | 3.11 µM | > 10 µM | 3.01 µM | 3.13 µM | 0.732 µM | 3.04 µM |  |  | 2.02 µM | 2.33 µM | 3.03 µM |  |  | 0.634 µM | 3.25 µM | > 10 µM | 2.25 µM
O=C1N(CN2CCOCC2)CN(CN2CCOCC2)C(=O)N1Cc1ccc(CN2C(=O)N(CN3CCOCC3)CN(CN3CCOCC3)C2=O)cc1 | > 100 µM | > 100 µM |  | 76.4 µM | > 100 µM | > 100 µM | > 100 µM | > 100 µM | > 100 µM | > 100 µM | > 100 µM | > 100 µM |  | > 100 µM | > 100 µM | > 100 µM | > 100 µM | > 100 µM | > 100 µM | > 100 µM
Cc1cccc(/C=N/NC(=S)N(C)CCc2ccccn2)n1 | > 100 µM |  | > 45.6 µM | > 100 µM | 2.38 µM | > 100 µM | > 100 µM | > 100 µM | > 100 µM | > 100 µM | > 100 µM | > 100 µM |  | > 100 µM | 6.8 µM | > 100 µM | > 100 µM | > 100 µM | 45.6 µM | > 100 µM
